Patent publication US8802712B2, “Pyrazoloquinolines” (Merck Patent GmbH, priority 2010, dated 2014)
Where a name gives a salt, the structure may show the parent alone.

Each compound was assayed against DNA-PK (Homo sapiens (Human), UniProt P78527) (assay: DNA-PK/Biochemical Assay (FlashPlate kinase assay)). Settings: 5 μM ATP, 90 min, room temperature.
Experimental: The kinase assay was carried out in streptavidin-coated […] microtitre FlashPlates®. To this end, 1.5 μg of the DNA-PK/protein complex and 100 ng of biotinylated substrate, such as, for example, […] biotin-NH2 (“biotin-DNA-PK peptide”), in a total volume of 36.5 μl (34.25 mM HEPES/KOH, 7.85 mM Tris-HCl, 68.5 mM KCl, 5 μM ATP, 6.85 mM MgCl2, 0.5 mM EDTA, 0.14 mM EGTA, 0.69 mM DTT, pH 7.4), were incubated at room temperature for 90 min with 500 ng of DNA from calf thymus, 0.1 μCi of 33P-ATP and 1.8% of DMSO per well with or without the test compound. The reaction was stopped using 50 μl/well of 200 mM EDTA. After incubation for a further 30 min at room temperature, the liquid was removed. Each well was washed three times with 100 μl of 0.9% sodium chloride solution. A non-specific reaction (blank value) was determined using 10 μM of a proprietary kinase inhibitor. The radioactivity measurement was carried out by means of a TopCount. IC50 values were calculated in RS1. • Literature: Kashishian et al. (2003) Molecular Cancer Therapeutics 1257.

| Structure (SMILES) | IC50 [µM] |
| --- | --- |
| COc1cc2ncc3[nH]nc(-c4ccc(C#N)cc4)c3c2cc1OC [Compound 1, 4-(7,8-Dimethoxy-3H-pyrazolo[3,4-c]quinolin-1-yl)benzonitrile] | < 0.1 |
| COc1cc2ncc3c(c(-c4ccc(C#N)cc4F)nn3C)c2cc1O [Compound 6, 3-Fluoro-4-(8-hydroxy-7-methoxy-3-methyl-3H-pyrazolo[3,4-c]quinolin-1-yl)benzonitrile] | < 0.1 |
| COc1cc2ncc3[nH]nc(-c4ccc(C#N)c(Cl)c4)c3c2cc1OC [Compound 7, 2-Chloro-4-(7,8-dimethoxy-3H-pyrazolo-[3,4-c]quinolin-1-yl)-benzonitrile] | < 0.1 |
| COc1cc2ncc3c(c(-c4ccc(C#N)cc4)nn3C)c2cc1O[C@H](C(N)=O)c1ccc(F)cc1 [Compound 10, (S)-2-[1-(4-Cyanophenyl)-7-methoxy-3-methyl-3H-pyrazolo[3,4-c]quinolin-8-yloxy]-2-(4-fluorophenyl)-acetamide] | < 0.1 |
| COc1cc2ncc3c(c(-c4ccc(C#N)cc4)nn3C)c2cc1OCc1ccccn1 [Compound 13, 4-[7-Methoxy-3-methyl-8-(pyridin-2-ylmethoxy)-3H-pyrazolo[3,4-c]quinolin-1-yl]-benzonitrile] | > 0.5 |
| COc1cc2ncc3c(c(-c4ccc(C#N)cc4)nn3C)c2cc1OCc1ccccc1C#N [Compound 14, 4-[8-(2-Cyanobenzyloxy)-7-methoxy-3-methyl-8-3H-pyrazolo[3,4-c]quinolin-1-yl]-benzonitrile] | 0.1 to 0.5 |
| COc1cc2ncc3c(c(-c4ccc(C#N)cc4)nn3C)c2cc1OC(F)F [Compound 16, 4-(8-Difluoromethoxy-7-methoxy-3-methyl-3H-pyrazolo[3,4-c]quinolin-1-yl)-benzonitrile] | < 0.1 |
| COc1cc2ncc3c(c(-c4ccc(C#N)cc4)nn3C)c2cc1OC(F)(F)c1ccccc1 [Compound 17, 4-[8-(Difluorophenyl-methoxy)-7-methoxy-3-methyl-3H-pyrazolo[3,4-c]-quinolin-1-yl]benzonitrile] | 0.1 to 0.5 |
| COC(=O)C(Oc1cc2c(cc1OC)ncc1c2c(-c2ccc(C#N)cc2)nn1C)c1ccc(F)cc1 (centres unmarked) [Compound 18, Methyl 1-(4-cyanophenyl)-7-methoxy-3-methyl-3H-pyrazolo[3,4-c]quinolin-8-yloxy]-(4-fluorophenyl)-acetate] | 0.1 to 0.5 |
| COc1cc2ncc3c(c(-c4ccc(C#N)cc4)nn3C)c2cc1OC(C(=O)O)c1ccc(F)cc1 (centres unmarked) [Compound 19, [1-(4-Cyanophenyl)-7-methoxy-3-methyl-3H-pyrazolo[3,4-c]quinolin-8-yloxy]-(4-fluorophenyl)acetic acid] | < 0.1 |
| COc1cc2ncc3c(c(-c4ccc(C#N)cc4)nn3C)c2cc1OS(=O)(=O)c1ccc(C)cc1 [Compound 24, 1-(4-Cyanophenyl)-7-methoxy-3-methyl-3H-pyrazolo[3,4-c]quinolin-8-yl toluene-4-sulfonate] | 0.1 to 0.5 |
| COc1cc2ncc3c(c(-c4ccc(C#N)cc4)nn3C)c2cc1OP(=O)(O)c1ccccc1 [Compound 25, 1-(4-Cyanophenyl)-7-methoxy-3-methyl-3H-pyrazolo[3,4-c]quinolin-8-yl phenylphosphonate] | 0.1 to 0.5 |
| COc1cc2c(cc1OC(F)F)ncc1c2c(-c2ccc(C#N)cc2)nn1C [Compound 26, 4-(7-Difluoromethoxy-8-methoxy-3-methyl-3H-pyrazolo[3,4-c]quinolin-1-yl)-benzonitrile] | > 0.5 |
| COc1cc2ncc3c(c(-c4ccc(C#N)cc4)nn3C)c2cc1OCc1cnc2[nH]ccc2c1 [Compound 30, 4-[7-Methoxy-3-methyl-8-(1H-pyrrolo[2,3-b]pyridin-5-ylmethoxy)-3H-pyrazolo-[3,4-c]quinolin-1-yl]-benzonitrile] | 0.1 to 0.5 |
| COc1cc2ncc3c(c(-c4ccc(C#N)cc4)nn3C)c2cc1OCc1cc(Br)cs1 [Compound 36, 4-[8-(4-Bromothiophen-2-ylmethoxy)-7-methoxy-3-methyl-3H-pyrazolo[3,4-c]-quinolin-1-yl]benzonitrile] | < 0.1 |

The remaining lines, values ahead:

| IC50 [µM] | Structure (SMILES) |
| --- | --- |
| < 0.1 | COc1cc2ncc3c(c(-c4ccc(C#N)cc4)nn3C)c2cc1OC [Compound 2, 4-(7,8-Dimethoxy-3-methyl-3H-pyrazolo-[3,4-c]quinolin-1-yl)-benzonitrile] |
| < 0.1 | COc1cc2ncc3c(c(-c4ccc(C#N)c(Br)c4)nn3C)c2cc1OC [Compound 3] |
| < 0.1 | COc1cc2ncc3c(c(-c4ccc(C#N)cc4)nn3C)c2cc1O [Compound 5, 4-(8-Hydroxy-7-methoxy-3-methyl-3H-pyrazolo-[3,4-c]quinolin-1-yl)-benzonitrile] |
| < 0.1 | COc1cc2ncc3c(c(-c4ccc(C#N)cc4)nn3C)c2cc1O[C@@H](C(N)=O)c1ccc(F)cc1 [Compound 9, (R)-2-[1-(4-Cyanophenyl)-7-methoxy-3-methyl-3H-pyrazolo[3,4-c]quinolin-8-yloxy]-2-(4-fluorophenyl)-acetamide] |
| < 0.1 | COc1cc2ncc3c(c(-c4ccc(C#N)cc4)nn3C)c2cc1OCc1ccncc1 [Compound 11, 4-[7-Methoxy-3-methyl-8-(pyridin-4-ylmethoxy)-3H-pyrazolo[3,4-c]quinolin-1-yl]-benzonitrile] |
| < 0.1 | COc1cc2ncc3c(c(-c4ccc(C#N)cc4)nn3C)c2cc1OCc1cccnc1 [Compound 12, 4-[7-Methoxy-3-methyl-8-(pyridin-3-ylmethoxy)-3H-pyrazolo[3,4-c]quinolin-1-yl]-benzonitrile] |
| < 0.1 | COc1cc2ncc3c(c(-c4ccc(C#N)cc4)nn3C)c2cc1OCc1ccc(F)cc1 [Compound 15, 4-[8-(4-Fluorobenzyloxy)-7-methoxy-3-methyl-3H-pyrazolo[3,4-c]quinolin-1-yl]-benzonitrile] |
| < 0.1 | COc1cc2ncc3c(c(-c4ccc(C#N)cc4)nn3C)c2cc1OC(C(=O)O)c1ccccc1 (centres unmarked) [Compound 20, [1-(4-Cyanophenyl)-7-methoxy-3-methyl-3H-pyrazolo[3,4-c]quinolin-8-yloxy]phenylacetic acid] |
| < 0.1 | COc1cc2ncc3c(c(-c4ccc(C#N)cc4)nn3C)c2cc1OC(C(=O)O)c1cccs1 (centres unmarked) [Compound 21, [1-(4-Cyanophenyl)-7-methoxy-3-methyl-3H-pyrazolo[3,4-c]quinolin-8-yloxy]thiophen-2-ylacetic acid] |
| > 0.5 | COc1cc2ncc3c(c(-c4ccc(C#N)cc4)nn3C)c2cc1OC(C)(C(=O)O)c1ccccc1 (centres unmarked) [Compound 22, 2-[1-(4-Cyanophenyl)-7-methoxy-3-methyl-3H-pyrazolo[3,4-c]quinolin-8-yloxy]-2-phenylpropanoic acid] |
| < 0.1 | COc1cc2ncc3c(c(-c4ccc(C#N)cc4F)nn3C)c2cc1OC(C(N)=O)c1ccc(F)cc1 (centres unmarked) [Compound 23, 2-[1-(4-Cyano-2-fluoro-phenyl)-7-methoxy-3-methyl-3H-pyrazolo[3,4-c]quinolin-8-yloxy]-2-(4-fluorophenyl)-acetamide] |
| < 0.1 | COc1cc2ncc3c(c(-c4ccc(C#N)cc4)nn3C)c2cc1OCc1ccc(CO)cc1 [Compound 27, 4-[8-(4-Hydroxymethyl-benzyloxy)-7-methoxy-3-methyl-3H-pyrazolo[3,4-c]-quinolin-1-yl]benzonitrile] |
| 0.1 to 0.5 | COc1cc2ncc3c(c(-c4ccc(C#N)cc4)nn3C)c2cc1OCc1cccc(CN2CCOCC2)c1 [Compound 28, 4-[7-Methoxy-3-methyl-8-(3-morpholin-4-ylmethyl-benzyloxy)-3H-pyrazolo-[3,4-c]quinolin-1-yl]-benzonitrile] |
| > 0.5 | COc1cc2ncc3c(c(-c4ccc(C#N)cc4)nn3C)c2cc1OCc1ccc(-n2cccn2)nc1 [Compound 29, 4-[7-Methoxy-3-methyl-8-(6-pyrazol-1-ylpyridin-3-ylmethoxy)-3H-pyrazolo-[3,4-c]quinolin-1-yl]-benzonitrile] |
| > 0.5 | COc1cc2ncc3c(c(-c4ccc(C#N)cc4)nn3C)c2cc1OCc1ccc(-n2cncn2)cc1 [Compound 31, 4-[7-Methoxy-3-methyl-8-(4-1,2,4-triazol-1-ylbenzyloxy)-3H-pyrazolo[3,4-c]quinolin-1-yl]benzonitrile] |
| 0.1 to 0.5 | COc1cc2ncc3c(c(-c4ccc(C#N)cc4)nn3C)c2cc1OCc1cccc(CN)c1 [Compound 32, 4-[8-(3-Aminomethyl-benzyloxy)-7-methoxy-3-methyl-3H-pyrazolo[3,4-c]-quinolin-1-yl]benzonitrile hydrochloride] |
| < 0.1 | COc1cc2ncc3c(c(-c4ccc(C#N)cc4)nn3C)c2cc1OCc1ccnc(N)c1 [Compound 33, 4-[8-(2-Aminopyridin-4-ylmethoxy)-7-methoxy-3-methyl-3H-pyrazolo[3,4-c]-quinolin-1-yl]benzonitrile] |
| < 0.1 | COc1cc2ncc3c(c(-c4ccc(C#N)cc4)nn3C)c2cc1OCc1cccs1 [Compound 34, 4-[7-Methoxy-3-methyl-8-(thiophen-2-ylmethoxy)-3H-pyrazolo[3,4-c]quinolin-1-yl]-benzonitrile] |
| < 0.1 | COc1cc2ncc3c(c(-c4ccc(C#N)cc4)nn3C)c2cc1OCc1ccsc1 [Compound 35, 4-[7-Methoxy-3-methyl-8-(thiophen-3-ylmethoxy)-3H-pyrazolo[3,4-c]quinolin-1-yl]-benzonitrile] |
| > 0.5 | COc1cc2ncc3c(c(-c4ccc(C#N)cc4)nn3C)c2cc1OCc1cc2ccccc2s1 [Compound 37, 4-[8-(Benzo[b]thiophen-2-ylmethoxy)-7-methoxy-3-methyl-3H-pyrazolo[3,4-c]-quinolin-1-yl]benzonitrile] |
